Here are results for 3 compounds from the NIST ThermoML archive (doi:10.1016/j.jct.2006.05.008).

Molecules are shown by their SMILES. Numbers after ± are expanded uncertainties.

This data set can be described thus: Molar enthalpy of transition or fusion. Conditions: Adiabatic calorimetry.

Turning to `CCC[n+]1ccn(C)c1.[Br-]` [1-methyl-3-propylimidazolium bromide], the “Molar enthalpy of transition or fusion” value by setting is: (Crystal) 3.23 ± 0.0478 kcal/mol; (Metastable crystal) 5.11 ± 0.0717 kcal/mol.

In the case of `CCn1cc[n+](C)c1.[Br-]` [1-ethyl-3-methylimidazolium bromide], the “Molar enthalpy of transition or fusion” value (Crystal) is 4.36 ± 0.0574 kcal/mol.

On to `CCCCn1cc[n+](C)c1.[Br-]` [1-butyl-3-methylimidazolium bromide], for which the “Molar enthalpy of transition or fusion” value (Crystal) was found to be 5.468 ± 0.0239 kcal/mol.
